Laboratory results published in US8816078B2, “Acidic gas removal by aqueous amine solvents” (Board of Regents, The University of Texas System, priority 2010, dated 2014).
Read-outs that look alike come from different tables or passages of the source.

Tests used:
[1] = Cyclic CO2 capacity calculated from the regressed VLE model; assay type: physicochemical
[2] = Heat of CO2 absorption calculated from the VLE model; assay type: physicochemical
Description: VLE models of CO2 partial pressure were regressed from experimental data to calculate CO2 capacity and enthalpy of CO2 absorption (ΔHabs).
Heat of absorption was calculated from the model mentioned above by applying the following thermodynamic equation: […]
Heat of absorption was calculated from the model mentioned above by applying the Gibbs-Helmholtz equation: […]
The heat absorption of CO2 at a 1.5 kPa, which is an average CO2 partial pressure for lean and rich solutions, was calculated.

[3] = Solubility and solids precipitation limits of amines in water; assay type: physicochemical
[4] = Solubility measurements of CO2 loaded PZ/1-MPZ/1,4-DMPZ blends; assay type: physicochemical
Description: Solubility measurements for CO2 loaded 3.9 m PZ/3.9 m 1-MPZ/0.2 m 1,4-DMPZ and 3.75 m PZ/3.75 m 1-MPZ/0.5 m 1,4-DMPZ solutions were taken to predict the solubility envelope of these blends. The solubility of the blends at varying loadings and temperatures are shown in FIG. 7 for the 3.9 m PZ/3.9 m 1-MPZ/0.2 m 1,4-DMPZ blend and in FIG. 8 for the 3.75 m PZ/3.75 m 1-MPZ/0.5 m 1,4-DMPZ blend. […] At 0° C., the 8 m blend: 3.75 m PZ/3.75 m 1-MPZ/0.5 m […] was soluble at 2° C. with a lean loading of 0.17 mol CO2/mol alkalinity, in contrast to 8 m PZ, which must be operated at loading above 0.3 to avoid solids precipitation.
A maximum CO2 loading of 0.41 and 0.39 was obtained for the 3.9 m PZ/3.9 m 1-MPZ/0.2 m 1,4-DMPZ blend and the 3.75 m PZ/3.75 m 1-MPZ/0.5 m 1,4 DMPZ blend respectively at room temperature without any solid precipitation. Intermediary loaded solutions were prepared by appropriately mixing the rich loaded and zero loaded solutions and observed at temperatures between 0° C. and the melting point of the solution.

[5] = for PCO2* at 40° C.: calculated from CO2 solubility curves
[6] = Freeman et al., 2009; cited from earlier work
[7] = 25° C.; cited from earlier work
[8] = Conc. (m): MDEA/PZ 7/2, PZ 8, MEA 7, HEP 7.7, AEP 6, 2-PE 8, AMP 4.8, EDA 12, DGA 10, PZ-MPZ 4/4, MPZ 8
[9] = CO2 Loading 0.035 mol/mole Alkalinity
[10] = CO2 Loading 0.037 mol/mole Alkalinity
[11] = CO2 Loading 0.102 mol/mole Alkalinity
[12] = CO2 Loading 0.104 mol/mole Alkalinity
[13] = CO2 Loading 0.156 mol/mole Alkalinity
[14] = CO2 Loading 0.158 mol/mole Alkalinity
[15] = CO2 Loading 0.209 mol/mole Alkalinity
[16] = CO2 Loading 0.217 mol/mole Alkalinity
[17] = CO2 Loading 0.251 mol/mole Alkalinity
[18] = CO2 Loading 0.266 mol/mole Alkalinity
[19] = CO2 Loading 0.303 mol/mole Alkalinity
[20] = CO2 Loading 0.313 mol/mole Alkalinity, listed as 8 m PZ
[21] = CO2 Loading 0.313 mol/mole Alkalinity, listed as 10 m PZ
[22] = CO2 Loading 0.330 mol/mole Alkalinity

CO2 Capacity [1, 8]: 0.79 mol/kg (water + amine)
cyclic CO2 capacity ([1]; difference between lean and rich CO2 loading at 500 Pa and 5,000 Pa CO2 partial pressure): 0.79 mol CO2/kg (water+amine)
Heat of CO2 absorption (ΔHabs) ([2]; 8 m MPZ, 4 m PZ/4 m MPZ blend, 8 m PZ): 16.7 kcal/mol
ΔHabs@PCO2 = 1.5 kPa [2, 8]: 16.7 kcal/mol
heat absorption of CO2 ([2]; at 1.5 kPa CO2 partial pressure): 16.7 kcal/mol
oxidative degradation [3]: resistant to oxidative degradation
CO2 loading below which PZ.6 H2O solids precipitate ([3]; 0° C.): less than 0.3
CO2 loading above which protonated piperazine carbamate precipitates ([3]; ambient temperature): greater than 0.45 moles/equivalent amine
solubility in water ([3]; zero CO2 loading, ambient temperatures, precipitation of PZ.6H2O): about 2 m
CO2 loadings at which solid H+PZCOO−.H2O is formed [4]: ≥ 0.43
loading above which the solvent must be operated to avoid solids precipitation ([4]; 0° C.): above 0.3
CO2 loadings at which solid PZ.6H2O is formed ([4]; 25° C.): ≤ 0.22
PCO2* at 40° C. ([5]; CO2 Loading 0 mol/mole Alkalinity): 0.0014 kPa
Transition Temp ([5]; CO2 Loading 0 mol/mole Alkalinity, listed as 8 m PZ): 43.0 °C
Transition Temp ([5]; CO2 Loading 0 mol/mole Alkalinity, listed as 10 m PZ): 43 °C
Transition Temp [5, 9]: 40.0 °C
PCO2* at 40° C. [5, 9]: 0.0023 kPa
Transition Temp [5, 10]: 40.5 °C
PCO2* at 40° C. [5, 10]: 0.0023 kPa
Transition Temp [5, 11]: 38.5 °C
PCO2* at 40° C. [5, 11]: 0.0068 kPa
Transition Temp [5, 12]: 38.5 °C
PCO2* at 40° C. [5, 12]: 0.0070 kPa
Transition Temp [5, 13]: 35 °C
PCO2* at 40° C. [5, 13]: 0.0179 kPa
Transition Temp [5, 14]: 33.0 °C
PCO2* at 40° C. [5, 14]: 0.0185 kPa
Transition Temp [5, 15]: 26.5 °C
PCO2* at 40° C. [5, 15]: 0.0499 kPa
Transition Temp [5, 16]: 27 °C
PCO2* at 40° C. [5, 16]: 0.0589 kPa
Transition Temp [5, 17]: 18.0 °C
PCO2* at 40° C. [5, 17]: 0.1216 kPa
Transition Temp [5, 18]: 18 °C
PCO2* at 40° C. [5, 18]: 0.1679 kPa
Transition Temp [5, 19]: 3.0 °C
PCO2* at 40° C. [5, 19]: 0.3892 kPa
PCO2* at 40° C. [5, 20]: 0.4862 kPa
PCO2* at 40° C. [5, 21]: 0.4830 kPa
Transition Temp [5, 20]: 0 °C
Transition Temp [5, 21]: 5.5 °C
Transition Temp [5, 22]: 0 °C
PCO2* at 40° C. [5, 22]: 0.7252 kPa
CO2 loading needed to maintain an aqueous solution ([5]; room temperature (21° C.)): 0.23 mole CO2 per mole alkalinity
highest CO2 loading usable without risk of solid precipitation ([5]; solvent at 0° C.): ≤ 0.4 moles CO2/equiv PZ
lowest CO2 loading usable without risk of solid precipitation ([5]; solvent at 0° C.): ≥ 0.3 moles CO2/equiv PZ
Compound: C1CNCCN1 [PZ, piperazine]
temperature up to which highly resistant to thermal degradation [6]: up to 150 °C
solubility in water [7]: less than 2 M
